Results taken from the NIST ThermoML archive (doi:10.1021/je049610v).

What was measured:
[1] = xn = mol fraction of the nth substance listed; settings: 101 kPa, Liquid
[2] = refractive index (Na D-line) (dimensionless); xn = mol fraction of the nth substance listed; settings: 101 kPa, Liquid

COc1ccccc1 [anisole] + C1COCCO1
Settings | mass density, 298.15 K [kg/m3] | mass density, 303.15 K [kg/m3] | mass density, 308.15 K [kg/m3] | refractive index, 298.15 K | refractive index, 303.15 K | refractive index, 308.15 K | speed of sound, 298.15 K [m/s] | viscosity, 298.15 K [mPa·s] | viscosity, 303.15 K [mPa·s] | viscosity, 308.15 K [mPa·s]
[1], x1 = 0.0982 | 1023.3 | 1017.9 | 1012.9 | – | – | – | 1355 | 1.342 | 1.185 | 1.028
[1], x1 = 0.199 | 1018.4 | 1013.2 | 1008.2 | – | – | – | 1364 | 1.267 | 1.128 | 0.99
[1], x1 = 0.296 | 1014 | 1008.6 | 1003.9 | – | – | – | 1371 | 1.19 | 1.074 | 0.957
[1], x1 = 0.398 | 1009.7 | 1004.6 | 999.8 | – | – | – | 1378 | 1.12 | 1.028 | 0.936
[1], x1 = 0.5046 | 1005.5 | 1000.6 | 995.7 | – | – | – | 1385 | 1.072 | 0.994 | 0.917
[1], x1 = 0.6044 | 1001.8 | 996.9 | 992.1 | – | – | – | 1390 | 1.048 | 0.976 | 0.904
[1], x1 = 0.7057 | 998.3 | 993.5 | 988.6 | – | – | – | 1396 | 1.042 | 0.969 | 0.897
[1], x1 = 0.8028 | 995.1 | 990.5 | 985.4 | – | – | – | 1401 | 1.032 | 0.957 | 0.883
[1], x1 = 0.9005 | 991.9 | 987.4 | 982.4 | – | – | – | 1405 | 1.011 | 0.941 | 0.87
[1], x1 = 1 | 988.9 | 984.1 | 979.4 | – | – | – | 1410 | 0.992 | 0.919 | 0.853
[2], x1 = 0.0982 | – | – | – | 1.432 | 1.4295 | 1.427 | – | – | – | –
[2], x1 = 0.199 | – | – | – | 1.4434 | 1.4408 | 1.4383 | – | – | – | –
[2], x1 = 0.296 | – | – | – | 1.4538 | 1.4514 | 1.4496 | – | – | – | –
[2], x1 = 0.398 | – | – | – | 1.4647 | 1.4628 | 1.4603 | – | – | – | –
[2], x1 = 0.5046 | – | – | – | 1.475 | 1.472 | 1.47 | – | – | – | –
[2], x1 = 0.6044 | – | – | – | 1.484 | 1.4814 | 1.4789 | – | – | – | –
[2], x1 = 0.7057 | – | – | – | 1.4925 | 1.4899 | 1.4872 | – | – | – | –
[2], x1 = 0.8028 | – | – | – | 1.5009 | 1.4982 | 1.4956 | – | – | – | –
[2], x1 = 0.9005 | – | – | – | 1.5084 | 1.5054 | 1.5025 | – | – | – | –
[2], x1 = 1 | – | – | – | 1.5148 | 1.5124 | 1.5092 | – | – | – | –

CCOC(=O)C(=O)OCC [diethyl ethanedioate] + COc1ccccc1
Settings | mass density, 298.15 K [kg/m3] | mass density, 303.15 K [kg/m3] | mass density, 308.15 K [kg/m3] | refractive index, 298.15 K | refractive index, 303.15 K | refractive index, 308.15 K | speed of sound, 298.15 K [m/s] | viscosity, 298.15 K [mPa·s] | viscosity, 303.15 K [mPa·s] | viscosity, 308.15 K [mPa·s]
[1], x2 = 0 | 1072.3 | 1066.6 | 1060.7 | – | – | – | 1267 | 1.844 | 1.659 | 1.508
[1], x2 = 0.1017 | 1065.8 | 1060.1 | 1054.3 | – | – | – | 1280 | 1.732 | 1.578 | 1.424
[1], x2 = 0.1976 | 1059.5 | 1053.8 | 1048.1 | – | – | – | 1293 | 1.64 | 1.497 | 1.354
[1], x2 = 0.2978 | 1052.6 | 1047.1 | 1041.4 | – | – | – | 1307 | 1.55 | 1.416 | 1.282
[1], x2 = 0.3621 | 1047.7 | 1042.3 | 1036.7 | – | – | – | 1316 | 1.495 | 1.367 | 1.239
[1], x2 = 0.4971 | 1037.4 | 1031.9 | 1026.5 | – | – | – | 1334 | 1.38 | 1.265 | 1.149
[1], x2 = 0.5975 | 1029.1 | 1023.8 | 1018.5 | – | – | – | 1348 | 1.301 | 1.195 | 1.089
[1], x2 = 0.6977 | 1020.1 | 1014.9 | 1009.7 | – | – | – | 1362 | 1.223 | 1.126 | 1.03
[1], x2 = 0.8016 | 1010.1 | 1005.3 | 1000 | – | – | – | 1377 | 1.14 | 1.054 | 0.968
[1], x2 = 0.9007 | 999.9 | 995.4 | 990.2 | – | – | – | 1393 | 1.061 | 0.985 | 0.91
[2], x2 = 0 | – | – | – | 1.4084 | 1.4061 | 1.4039 | – | – | – | –
[2], x2 = 0.1017 | – | – | – | 1.4171 | 1.4148 | 1.4124 | – | – | – | –
[2], x2 = 0.1976 | – | – | – | 1.4257 | 1.4232 | 1.4207 | – | – | – | –
[2], x2 = 0.2978 | – | – | – | 1.435 | 1.4325 | 1.43 | – | – | – | –
[2], x2 = 0.3621 | – | – | – | 1.4412 | 1.4388 | 1.4362 | – | – | – | –
[2], x2 = 0.4971 | – | – | – | 1.4551 | 1.4525 | 1.4499 | – | – | – | –
[2], x2 = 0.5975 | – | – | – | 1.466 | 1.4634 | 1.4607 | – | – | – | –
[2], x2 = 0.6977 | – | – | – | 1.4773 | 1.4746 | 1.4718 | – | – | – | –
[2], x2 = 0.8016 | – | – | – | 1.4896 | 1.4868 | 1.484 | – | – | – | –
[2], x2 = 0.9007 | – | – | – | 1.5021 | 1.4991 | 1.4962 | – | – | – | –

COc1ccccc1 [anisole] + ClC(Cl)C(Cl)Cl
x1 = 1
Settings | mass density, 298.15 K [kg/m3] | mass density, 303.15 K [kg/m3] | mass density, 308.15 K [kg/m3] | refractive index, 298.15 K | refractive index, 303.15 K | refractive index, 308.15 K | speed of sound, 298.15 K [m/s] | viscosity, 298.15 K [mPa·s] | viscosity, 303.15 K [mPa·s] | viscosity, 308.15 K [mPa·s]
[1] | 988.9 | 984.1 | 979.4 | – | – | – | 1410 | 0.992 | 0.919 | 0.853
[2] | – | – | – | 1.5148 | 1.5124 | 1.5092 | – | – | – | –
